# Experimental data published in patent US20210379068A1, “METHODS AND MATERIALS FOR TREATING NEUROPSYCHIATRIC DISORDERS” (Mayo Foundation for Medical Education and Research, priority 2018, published 2021).
# “Also recorded” adds a separate entry of the source.
# How the values were obtained:
# Assay type in all cases: in vivo, mouse
# wild-type C57Bl/6 mice = assay: Open field test, off-target effects of AP in wild-type C57Bl/6 mice on HFD; details: AP 10 mg/kg i.p. 3 days every 2 weeks for 8 weeks
# Experimental: For off target effect measurements db/db and HDF mice (fed with HFD for 2 months prior treatment) were injected intraperitoneally (i.p.) with […] at 10 mg/kg or vehicle for 3 days every 2 weeks for 8 weeks.
# Locomotor activity and anxiety-like behavior of mice were assessed in sound-insulated, rectangular activity chambers (Med Associates Inc., St Albans, Vt., USA: W×L×D=27 cm×27 cm×20 cm with continually running fans, infrared lasers, and sensors). Beam breaks were assessed in 2-minute bins over 30 minutes, converted automatically to current mouse location and distance travelled (cm), and recorded on a computer with Med-PC software Version 4.0. Before the test, mice were acclimatized to the room for 1-1.5 hours before being introduced into the chambers. Mice were habituated for 5 minutes in the Open Field chamber (without recording) then placed for another 5 minutes in the home cage. Afterwards, mice were introduced back to the chambers and all mouse movements were recorded for 30 minutes. Anxiety was quantified by the distance mice travelled in the central 25% of the chamber (zone 1) as a function of the total distance mice travelled and by frequencies of entries into zone 1.
# [1] = test system: senescent cells in perigonadal adipose tissue; assay: Senescence markers in perigonadal adipose tissue, INK-ATTAC mice on HFD; details: AP20187 vs vehicle
# Experimental: (§1) INK-ATTAC mice were injected intraperitoneally (i.p.) with AP20187 (10 mg/kg) or vehicle for 3 days every 2 weeks for a total of 8-10 weeks.
# Total RNA was extracted from white adipose tissue and brain using Trizol (Life Technologies, Carlsbad, Calif.) and reverse transcribed to cDNA with a M-MLV Reverse Transcriptase kit (Life Technologies). Real-time PCR was performed in a 7500 Fast Real Time PCR System (Applied Biosystems, Foster City, Calif.) using TaqMan Fast Universal PCR Master Mix (Life Technologies) and predesigned primers and probes from Applied Biosystems (Assay ID: Mm00494449_m1 [CDKN2A]; Mm04205640_g1 [CDKN1A]; Mm00446191_m1 [IL6]). Target gene expression was expressed as 2-ΔΔCT by the comparative CT method and normalized to the expression of TATA-binding protein (TBP) (Assay ID: Mm01277042 ml [TBP]).
# On the day of the sacrifice, a small piece of adipose tissue was fixed with 2% PFA and 0.5% glutaraldehyde (Sigma) for 15 minutes at room temperature before being incubated overnight in SA-β-Gal solution (150 mM NaCl (Sigma), 2 mM MgCl2 (Sigma), 40 mM Citric Acid (Sigma), 12 mM NaPO3 (Sigma), 400 μg/ml X-gal (Thermofisher), 2.1 mg/ml potassium hexacyanoferrat(II)trihydrate, and 1.65 mg/ml Potassium hexacyanoferrat(III)trihydrate (Sigma), pH 6.0) at 37° C. overnight. Fat chunks were washed with PBS three times and stored in PBS at 4° C. protected from light. Within 3 days, adipose tissue was stained with Hoechst solution (1:5000; Thermofisher), lightly squashed between two 1×3 inch glass slides, and imaged using a light microscope. 10-20 random visual fields were captured at 20× magnification at light exposure identical for all the samples. Images were quantified by manual counting of SA-β-Gal positive cells by a blinded assessor and the data were expressed as percent of total DAPI-positive cells.
# Paraffin sections were deparaffinized with Histoclear and hydrated in an ethanol gradient followed by water and PBS. Antigen was retrieved by incubation in 0.01M citrate buffer (pH 6.0) at 95° C. for 10 minutes. Slides were placed in blocking buffer (1:60 normal goat serum [S-1000, Vector Laboratories] in 0.1% BSA/PBS) for 60 minutes at room temperature. […] Primary antibodies used (Table 2) were diluted in blocking buffer and applied overnight at 4° C. The next day, slides were washed 3 times with PBS and incubated for 30 minutes with secondary goat, anti-rabbit antibody (1:200; Vector Laboratories #BA-1000) for TAF staining or for 60 minutes with secondary Alexa antibody (Table 1). For TAF staining, Fluorescein-Avidin in PBS (1:500; #A-2011, Vector Lab) was applied to each sample for 20 minutes. Slides were washed 3 times in PBS, which was followed by FISH for TAF detection. Briefly, tissues were crosslinked with 4% paraformaldehyde for 20 minutes and dehydrated in graded ethanol. Sections were denatured for 10 minutes at 80° C. in hybridization buffer (70% formamide (Sigma), 25 mM MgCl2, 0.1 M Tris (pH 7.2), and 5% blocking reagent [Roche]) containing 2.5 μg ml^−1 Cy-3-labelled telomere-specific (CCCTAA) peptide nucleic acid probe (Panagene), followed by hybridization for 2 hour at room temperature in the dark. Slides were washed twice with 70% formamide in 2×SSC for 15 minutes, followed by washes in 2×SSC and PBS for 10 minutes. Sections were mounted in Vectashield, DAPI-containing mounting media and imaged.
# A single, 3 μm-thick section per mouse was used for TAF staining, while for Dcx and Plin2 staining was performed on three 10 μm-thick sections 80 μm-apart. To quantify periventricular lipid accumulation 10-30 images in the periventricular region were taken using the DM5500 widefield fluorescence microscope from Leica with a 10× (for frequency of periventricular glia) or ×40 (for ALISE phenotype of ependymal cells) objective lens. Number of Plin2-positive cells (for frequency of ALISE-positive periventricular glia) or area of Plin2-positive vesicles (for ALISE phenotype of ependymal cells) was assessed using ImageJ software. […]
# brain cell populations = assay: CyTOF of brain cell populations, INK-ATTAC mice; details: AP vs vehicle
# Experimental: as §1
# This technique uniquely combines time-of-flight mass spectrometry with metal-labelling technology to enable detection of up to 40 protein targets per cell. A panel of antibodies based on surface markers, transcription factors, and cytokines (see Table 1) was designed for brain mass cytometry/cytometry by time of flight (CyTOF). Each antibody was tagged with a rare metal isotope and its function verified by mass cytometry according to the factory manual (Multi Metal labelling Kits, Fluidigm, CA). A CyTOF-2 mass cytometer (Fluidigm, South San Francisco, Calif.) was used for data acquisition. Acquired data were normalized based on normalization beads (Ce140, Eu151, Eu153, Ho165, and Lu175). A single brain hemisphere was dissociated into a single-cell suspension using brain tissue dissociation kits (Adult Brain Dissociation Kit, Miltenyi Biotec Inc., CA). Collected cells were incubated with metal-conjugated antibodies and, for testing intracellular proteins, including transcription factors and cytokines, fixation and permeabilization was conducted according to the manufacturer's instructions (Transcription Factor Staining Buffer Set, eBioscience, San Diego, Calif.). CyTOF data were analyzed by Cytobank (Santa Clara, Calif.).
compound,measurement,setting,value
CC[C@H](C(=O)N1CCCC[C@H]1C(=O)O[C@H](CCc1ccc(OC)c(OC)c1)c1cccc(OCC(=O)NCC(CNC(=O)COc2cccc([C@@H](CCc3ccc(OC)c(OC)c3)OC(=O)[C@@H]3CCCCN3C(=O)[C@@H](CC)c3cc(OC)c(OC)c(OC)c3)c2)CN(C)C)c1)c1cc(OC)c(OC)c(OC)c1 [AP],"anxiety-like behavior in open field (distance in the center), off-target control",wild-type C57Bl/6 mice,no difference
same,"% SA-β-Gal positive cells, perigonadal adipose tissue",[1],significantly reduced
same,"p16Ink4a (RT-PCR), perigonadal adipose tissue",[1],significantly reduced
same,"p21 (PCR), perigonadal adipose tissue",[1],not significantly changed
same,"telomere-associated DNA damage foci (TAF), perigonadal adipose tissue",[1],significantly reduced
same,"γ-H2A.X DNA damage foci, perigonadal adipose tissue",[1],not significantly changed
same,"% SA-β-Gal positive cells, perigonadal adipose tissue",[1]; listed as AP20187,complete rescue
same,"p21 (PCR), perigonadal adipose tissue",[1]; listed as AP20187,no change
same,"γ-H2A.X DNA damage foci, perigonadal adipose tissue",[1]; listed as AP20187,no change
same,"ependymal cells (CD133+), CyTOF",brain cell populations; HFD INK-ATTAC mice,significantly increased; also recorded: replenish
same,"immature neurons (Dcx+), CyTOF",brain cell populations; HFD INK-ATTAC mice,significantly increased; also recorded: partial recovery
same,"neuronal precursor cells (Nestin+), CyTOF",brain cell populations; HFD INK-ATTAC mice,replenish; also recorded: significantly increased
same,"frequency of endothelial cells (CD146+), CyTOF",brain cell populations; INK-ATTAC mice,did not alter
same,"frequency of mature neurons (NeuN+), CyTOF",brain cell populations; INK-ATTAC mice,did not alter
same,"frequency of microglia (CD11b+, CD45-), CyTOF",brain cell populations; INK-ATTAC mice,did not alter
same,"frequency of oligodendrocytes (CNPase+ or OSP+), CyTOF",brain cell populations; INK-ATTAC mice,did not alter
